Reference: patent US20030232851A1, “Viral treatment” (The Procter & Gamble Company, priority 1999, published 2003)
In brackets after ≈: the same amount, converted by molar mass. Several values for one entry are separate records, joined by “and”; a condition that tells them apart may be missing. Equal entries are not always repeated.

How the values were obtained:
[1] = test system: HIV-1 cell line, CEMSKI; assay: Long term in vitro study, CEMSKI, reverse transcriptase; assay type: cell-based; conditions: run through 242 days
Experimental: A microtiter-based reveres transcriptase (RT) reaction is utilized (Buckheit et al (1991) AIDS Research and Human Retroviruses 7:295-302). Tritiated thymidine triphosphate (NEN)(TTP) is resuspended in distilled water at 5 Ci/ml. Poly rA and oligo dT are prepared as a stock solution which is kept at −20° C. The RT reaction buffer is prepared fresh on a daily basis and consists of 125 μl 1M EGTA, 125 μl water, 125 μl Triton X-100, 50 μl Tris (pH 7.4), 50 μl 1 MDDT, and 40 μl 1M MgCl2. These three solutions are mixed together in a ratio of 1 part TTP, 2.5 parts poly rA:oligo dT, 2.5 parts reaction buffer and 4 parts distilled water. Ten microliters of this reaction mixture is placed in a round bottom microtiter place and 15 μl of virus containing supernatant is added and mixed. The plate is incubated at 37° C. for 60 minutes. […] Incorporated radioactivity is quantified utilizing a Wallac Microbeta scintillation counter. […]
The cell populations contain integrated copies of the HIV genome and constitutively produce HIV at relatively high levels or are latently infected and only produce virus after stimulation with phorbol esters, tumor necrosis factor or IL6 (U1 and ACH2). Reductions in virus products were observed when quantifying supernatant reverse transcriptase activity, […]

[2] = test system: U937RF, a protease resistant strain; assay: Long term in vitro study, U937RF, reverse transcriptase; assay type: cell-based, HIV
Experimental: A microtiter-based reveres transcriptase (RT) reaction is utilized (Buckheit et al (1991) AIDS Research and Human Retroviruses 7:295-302). Tritiated thymidine triphosphate (NEN)(TTP) is resuspended in distilled water at 5 Ci/ml. Poly rA and oligo dT are prepared as a stock solution which is kept at −20° C. The RT reaction buffer is prepared fresh on a daily basis and consists of 125 μl 1M EGTA, 125 μl water, 125 μl Triton X-100, 50 μl Tris (pH 7.4), 50 μl 1 MDDT, and 40 μl 1M MgCl2. These three solutions are mixed together in a ratio of 1 part TTP, 2.5 parts poly rA:oligo dT, 2.5 parts reaction buffer and 4 parts distilled water. Ten microliters of this reaction mixture is placed in a round bottom microtiter place and 15 μl of virus containing supernatant is added and mixed. The plate is incubated at 37° C. for 60 minutes. Following reaction, the reaction volume is spotted onto filter mats, washed 6 times for 5 minutes each in a 5% sodium phosphate buffer, 2 times for 1 minute each in distilled water, 2 times for 1 minute each in 70% ethanol, and then dried. The dried filter mat is placed in a plastic sample bag, Betaplate scintillation fluid is added and the bag is heat sealed. Incorporated radioactivity is quantified utilizing a Wallac Microbeta scintillation counter.
Acute infection of most established human cell lines with HIV-1 results in the eventual establishment of a constitutive virus-producing chronically infected cell line. The cells can be passaged for long periods of time in culture without loss of virus production. These cells may be utilized to evaluate the effects of anti-HIV compounds on syncytium formation or to evaluate the effects of anti-HIV compounds on levels of virus production from these cells. […] Each of the cells contains an integrated HIV genome or provirus. Chronically infected CEM, H9 and U937 cell lines have been prepared and cultured by Southern Research Institute, Frederick Md. and are available from them.
CEM-SS cells chronically infected with HIV isolate, for example SKI (CEM-SKI) are cultured in RPMI1640 tissue culture medium supplemented with 10% fetal bovine serum and antibiotics. […] CEM-SKI or other infected cells with no added drug are used as the control cells. Cells are allowed to grow to a density of approximately 1×10^6 cells/ml and are then passaged at a 1:10 dilution. […] The drug concentration in the flask is then increased two-fold and the cells maintained as above.
The cell populations contain integrated copies of the HIV genome and constitutively produce HIV at relatively high levels or are latently infected and only produce virus after stimulation with phorbol esters, tumor necrosis factor or IL6 (U1 and ACH2). Reductions in virus products were observed when quantifying supernatant reverse transcriptase activity,
A long term in vitro study of 2-(2-thienyl)-imidazolo [4,5-b]pyridine against U937RF, a protease resistant strain, was conducted at three different levels. The results with U937RF cells were reported at weekly intervals.

[3] = test system: hepatitis B, HEPG22.2.15; assay: In vitro virus production test of hepatitis B, DNA copy number; assay type: cell-based
[4] = test system: Cryptococcus neoformans; assay: Anti-fungal activity (NCCLS M-27A based), Cryptococcus neoformans; assay type: cell-based
Experimental: It was active against cryptococcus neoformans and curvularai lunata. The cidal activity for the C. neoformans is high enough that it is clear […] against this yeast. This test was conducted using a method based upon NCCLS reference method M-27A published in 1997. Solvent, medium and growth controls were set-up with the tests. Once these were read to validate the test performance, the QC fungi were read to insure they had expected results. These steps validated the test system. DMSO was used as a drug-chemical solvent. […] The 90% cut-off is necessary for azoles, which are static and not cidal. The FMC or cidal level was determined by sub-culturing a sample from each tube showing no growth.

[5] = test system: vero cells; assay: Herpes simplex testing: toxicity (TC50); set-up: unit not given beside the values

With `c1csc(-c2nc3cccnc3[nH]2)c1` [2-(2-thienyl)-imidazolo [4,5-b]pyridine] the “reverse transcriptase data on continuation (in words)” value [1] was “data remained consistent”, the reverse transcriptase data ([2]; 7 μg/ml, day 4) was 9711 and the reverse transcriptase data ([2]; 7 μg/ml, day 11) was 9974. It also gave a reverse transcriptase data ([2]; 7 μg/ml, day 18) of 7462, a reverse transcriptase data ([2]; 7 μg/ml, day 25) of 6952 and a reverse transcriptase data ([2]; 7 μg/ml, day 32) of 9161. The reverse transcriptase data ([2]; 7 μg/ml, day 39) was 11155, the reverse transcriptase data ([2]; 7 μg/ml, day 46) was 5178 and the reverse transcriptase data ([2]; 7 μg/ml, day 53) was 5878. The reverse transcriptase data ([2]; 7 μg/ml, day 60) was 7586, the reverse transcriptase data ([2]; 7 μg/ml, day 67) was 6678 and the reverse transcriptase data ([2]; 7 μg/ml, day 71) was 7299. For the same compound, the reverse transcriptase data ([2]; 7 μg/ml, day 74) was 5927, the reverse transcriptase data ([2]; 7 μg/ml, day 88) was 6996 and the reverse transcriptase data ([2]; 7 μg/ml, day 95) was 5624. It also gave a reverse transcriptase data ([2]; 7 μg/ml, day 102) of 6002, a reverse transcriptase data ([2]; 7 μg/ml, day 109) of 13890 and a reverse transcriptase data ([2]; 15 μg/ml, day 4) of 6397. The reverse transcriptase data ([2]; 15 μg/ml, day 11) was 8051, the reverse transcriptase data ([2]; 15 μg/ml, day 18) was 7932 and the reverse transcriptase data ([2]; 15 μg/ml, day 25) was 5229. The reverse transcriptase data ([2]; 15 μg/ml, day 32) was 7277, the reverse transcriptase data ([2]; 15 μg/ml, day 39) was 12487 and the reverse transcriptase data ([2]; 15 μg/ml, day 46) was 4703. It also gave a reverse transcriptase data ([2]; 15 μg/ml, day 53) of 4960, a reverse transcriptase data ([2]; 15 μg/ml, day 60) of 7952 and a reverse transcriptase data ([2]; 15 μg/ml, day 67) of 6417. It also gave a reverse transcriptase data ([2]; 15 μg/ml, day 71) of 7016, a reverse transcriptase data ([2]; 15 μg/ml, day 74) of 5903 and a reverse transcriptase data ([2]; 15 μg/ml, day 88) of 5887. The reverse transcriptase data ([2]; 15 μg/ml, day 95) was 4602, the reverse transcriptase data ([2]; 15 μg/ml, day 102) was 5229 and the reverse transcriptase data ([2]; 15 μg/ml, day 109) was 5718. It also gave a reverse transcriptase data ([2]; 30 μg/ml, day 4) of 4841, a reverse transcriptase data ([2]; 30 μg/ml, day 11) of 5389 and a reverse transcriptase data ([2]; 30 μg/ml, day 18) of 6988. For the same compound, the reverse transcriptase data ([2]; 30 μg/ml, day 25) was 6061, the reverse transcriptase data ([2]; 30 μg/ml, day 32) was 7572 and the reverse transcriptase data ([2]; 30 μg/ml, day 39) was 8558. It also gave a reverse transcriptase data ([2]; 30 μg/ml, day 46) of 3065, a reverse transcriptase data ([2]; 30 μg/ml, day 53) of 3643 and a reverse transcriptase data ([2]; 30 μg/ml, day 60) of 3445. It also gave a reverse transcriptase data ([2]; 30 μg/ml, day 67) of 4368, a reverse transcriptase data ([2]; 30 μg/ml, day 71) of 1498 and a reverse transcriptase data ([2]; 30 μg/ml, day 74) of 3639. For the same compound, the reverse transcriptase data ([2]; 30 μg/ml, day 88) was 2697, the reverse transcriptase data ([2]; 30 μg/ml, day 95) was 2442 and the reverse transcriptase data ([2]; 30 μg/ml, day 102) was 2815. For the same compound, the reverse transcriptase data ([2]; 30 μg/ml, day 109) was 2095, the “reverse transcriptase data on continuation (in words)” value ([2]; run through 242 days) was “data remained consistent” and the “DNA Copy Number, % virus control” value ([3]; 0.64 μg/ml) was 75.3%. For the same compound, the “DNA Copy Number, mean” value ([3]; 0.64 μg/ml) was 255.6 per 3 μl, the “DNA Copy Number, samples 1-3” value ([3]; 0.64 μg/ml) was 249.2 per 3 μl and 255.9 per 3 μl and 261.6 per 3 μl and the “DNA Copy Number, % virus control” value ([3]; 2 μg/ml) was 39.8%. The “DNA Copy Number, mean” value ([3]; 2 μg/ml) was 134.8 per 3 μl, the “DNA Copy Number, samples 1-3” value ([3]; 2 μg/ml) was 134.5 per 3 μl and 124.2 per 3 μl and 145.8 per 3 μl and the “DNA Copy Number, % virus control” value ([3]; 6.4 μg/ml) was 8.2%. The “DNA Copy Number, mean” value ([3]; 6.4 μg/ml) was 27.9 per 3 μl, the “DNA Copy Number, % virus control” value ([3]; 20 μg/ml) was 0.8% and the “DNA Copy Number, mean” value ([3]; 20 μg/ml) was 2.7 per 3 μl. For the same compound, the “DNA Copy Number, % virus control” value ([3]; 64 μg/ml) was 0.1%, the “DNA Copy Number, mean” value ([3]; 64 μg/ml) was 0.4 per 3 μl and the “DNA Copy Number, % virus control” value ([3]; 200 μg/ml) was 0%. The “DNA Copy Number, mean” value ([3]; 200 μg/ml) was 0.1 per 3 μl, the IC50 ([3]; HepG2 2.2.15, first experiment) was 1.6 µg/mL (≈ 7.95 µM) and the IC50 ([3]; HepG2 2.2.15, replicate experiment) was 10.7 µg/mL (≈ 53.2 µM). The MFC ([4]; Cryptococcus neoformans, cidal level) was > 32 µg/mL, the MIC ([4]; Cryptococcus neoformans, growth inhibited or reduced at least 90%) was 0.03 µg/mL (≈ 0.149 µM) and the “activity against Cryptococcus neoformans (in words)” value ([4]; in vitro) was “active”. It also gave a TC50 [5] of 82.8.
